According to patent publication US20080033026A1, “Antimicrobial compositions, methods and systems” (priority 2006, published 2008):

Columns and labels:
Format in all cases: cell-based
[1] = tested on: Pseudomonas aeruginosa (ATCC 15442); assay: MIC and MBC determination (broth dilution); conditions: Mueller-Hinton Broth, 20-24 h, 37° C.
Description: (§1) The determination of the MIC and MBC of 9-decenoic acid conformed to the procedure printed in the Federal Register, June 1994 and the present NCCLS M11-A4 protocol. Challenge organisms were prepared as follows. The MIC and MBC of 9-decenoic acid and the methyl ester of 9-decenoic acid were determined for the following challenge organisms: Staphylococcus aureus (ATCC 6538), Pseudomonas aeruginosa (ATCC 15442), Staphylococcus epidermidis (ATCC 12228), Klebsiella pneumoniae (ATCC 4352), Escherichia coli 0157:H7 (ATCC 43895) and Candida albicans (ATCC 10231). Stock cultures of each organism were transferred onto suitable culture media, Mueller-Hinton Agar (MHA) plates, and incubated for 24 hours (+2 hours) at 37° C. (+2° C.). On the day of the test, the top of at least three to five well-isolated colonies were transferred via wire loop to a tube containing 4 to 5 ml of Trypticase Soy Broth (TSB). The TSB culture was incubated for 2 to 6 hours and turbidity was adjusted with sterile saline to achieve the turbidity of a McFarland 0.5 Standard.
(§2) The concentrated 9-decenoic acid (97%) was diluted in Mueller-Hinton Broth (MHB) to yield a 25,000 ppm stock solution of the 9-decenoic acid. For each organism, 12 dilutions of the 9-decenoic acid in MHB were prepared ranging from 0.25% to 0.00049%. The test solution of the methyl ester of 9-decenoic acid was formulated in the same manner.
(§3) A 2-ml aliquot of appropriately diluted 9-decenoic acid solution or methyl ester of 9-decenoic acid was placed in each tube. Each tube was inoculated with 0.05 ml of a 1:10 dilution of one challenge organism. Tubes were incubated at 37° C. (±2° C.) for 20-24 hours and observed for microbial growth visually and by spectrophotometer. […] (±2° C.) for 20-24 hours and visually observed for growth.
(§4) Controls were run for sterility, viability and organism confirmation. It was determined that all cultures were viable and pure.
(§5) The MBC was defined as the concentration of 9-decenoic acid or the methyl ester of 9-decenoic acid that completely eradicated viable organisms from the test system.

[2] = tested on: Escherichia coli 0157:H7 (ATCC 43895); assay: MIC and MBC determination (broth dilution)
Description: as §1, §2, §3, §4, §5

[3] = tested on: Candida albicans (ATCC 10231); assay: MIC and MBC determination (broth dilution)
Description: as §1, §2, §3, §4, §5

[4] = tested on: Klebsiella pneumoniae (ATCC 4352); assay: MIC and MBC determination (broth dilution); conditions: Mueller-Hinton Broth, 20-24 h, 37° C.
Description: as §1, §2, §3, §4, §5

[5] = tested on: Staphylococcus aureus (ATCC 6538); assay: Time-kill determination
Description: The assessment of efficacy of 9-decenoic acid against a spectrum of microorganisms was determined using the American Society for Testing and Materials (ASTM) procedure entitled “Standard Test Method for the Assessment of Microbiocidal Activity of Test Materials Using a Time-Kill Procedure,” October 1998. This procedure incorporates the recommendations described in the “Manual of Clinical Microbiology,” 5th ed., edited by A. B. Balows et al., ASM, Washington, and is directed by the Federal Register, June 1994.
Challenge organisms were prepared as follows. Cultures of the following organisms were obtained: Staphylococcus aureus (ATCC 6538), Pseudomonas aeruginosa (ATCC 15442), Staphylococcus epidermidis (ATCC 12228), Klebsiella pneumoniae (ATCC 4352), Escherichia coli 0157:H7 (ATCC 43895) and Candida albicans (ATCC 10231). The stock cultures were transferred to sterile tubes and sterile tryptic soy broth (TSB) was added to the cultures. The mixture was incubated for 18-24 hours at 37° C. (±2° C.). A portion of this culture was then transferred onto TSA plates and incubated for 18-24 hours at 37° C. (±2° C.). The plates were removed from incubation and the bacterial growth was washed from the agar surface using Butterfield's Phosphate Buffered Dilution Water (PBDW).
The bacterial suspension was adjusted to contain approximately 10^8 Colony Forming Units (CFU) per ml with PBDW. The concentration was adjusted to an optical density (OD) of 0.4-0.5 (versus a PBDW blank) at 620 nm in a UV-Vis spectrophotometer, and this optical density gave approximately 10^8 colony forming units per milliliter (cfu/ml). The standardized suspension was stored under appropriate conditions until it was used as the challenge inoculum.
Concentrated 9-decenoic acid (97%) was diluted in filter sterilized isopropanol to yield a 25,000 ppm stock solution. Subsequent dilutions to the 9-decenoic acid stock solutions were made with sterile Deionized Water (DI) to achieve concentrations of 0.1%, 0.05%, 0.01% and 0.001%. The pH was determined for each dilution; pH values ranged from 4.4-4.1. […] In addition, 9-decenoic acid stock solution was combined with Triclosan™ (obtained from Ciba Specialty Chemical Corporation, under the tradename Irgasan DP 300™) in various ratios, as indicated in Table 8. The pH of the combined solution was 7.
Compliant with the ASTM procedure cited, for each challenge microorganism a 9.9 ml aliquot of the prepared 9-decenoic acid suspension was added to a sterile tube. A 0.1 ml aliquot of the standardized inoculum was added to the 9-decenoic acid solution representing the start of the test exposure. The inoculated 9-decenoic acid solution was immediately mixed thoroughly. The inoculated suspension was held at room temperature for 0.5, 2, 5, 7 and 10-minute exposure times for tests run at pH level of approximately 4. The pH 7 tests were held at room temperature for 0.5 and 2 minutes.
At each exposure sample time, a 1.0 ml aliquot of the inoculated 9-decenoic acid suspension was transferred to 9.0 ml of D/E Neutralizing Broth. Additional ten-fold serial dilutions were made in PBDW and plated in duplicate on TSA. All plates were incubated for 48 hours at 37° C. (±2° C.) and visually examined for growth. The plates were enumerated, recorded and log kill determined for each time point.
The following study controls were conducted: culture purity, neutralizer sterility, initial suspension population, test population, neutralization verification and a negative control using isopropanol. Culture purity was verified by performing a streak plate for isolated colonies of each culture used. All cultures were determined to be pure based on consistent colony morphology typical for the test organism. The neutralizer sterility was confirmed by no growth in an incubated sample.
The populations of the initial and test culture were determined by serial dilution, plating and enumerating after incubation. The initial suspension were determined to be ≧10^4 CFU/ml. […]

[6] = Mueller-Hinton Broth, 20-24 h, 37° C.

## C=CCCCCCCCC(=O)O [9-decenoic acid]
[1]
  MIC: 0.0625%
[2]; [6]
  MIC: 0.125%
[2]; subculture on TSA
  MBC: 0.125%
[3]; [6]
  MIC: 0.0625%
[3]; subculture on TSA
  MBC: 0.0625%
[4]
  MIC: 0.0625%
[5]; 0.01% 9-decenoic acid, pH 4.4, exposure 0.5 min
  Log reduction: 1.4 log
[5]; 0.01% 9-decenoic acid, pH 4.4, exposure 2 min
  Log reduction: 4.6 log
[5]; 0.01% 9-decenoic acid, pH 4.4, exposure 5 min
  Log reduction: >6.5 log
[5]; 0.01% 9-decenoic acid, pH 4.4, exposure 7 min
  Log reduction: >6.5 log
[5]; 0.01% 9-decenoic acid, pH 4.4, exposure 10 min
  Log reduction: >6.5 log
[5]; 0.05% 9-decenoic acid, pH 4.1, exposure 0.5 min
  Log reduction: >6.5 log
[5]; 0.05% 9-decenoic acid, pH 4.1, exposure 2 min
  Log reduction: >6.5 log
[5]; 0.05% 9-decenoic acid, pH 4.1, exposure 5 min
  Log reduction: >6.5 log
[5]; 0.05% 9-decenoic acid, pH 4.1, exposure 7 min
  Log reduction: >6.5 log
[5]; 0.05% 9-decenoic acid, pH 4.1, exposure 10 min
  Log reduction: >6.5 log
[5]; 0.05% 9-decenoic acid, pH 7, exposure 0.5 min
  Log reduction: 0 log
[5]; 0.05% 9-decenoic acid, pH 7, exposure 2 min
  Log reduction: 0 log
[5]; 0.1% 9-decenoic acid, pH 4.1, exposure 0.5 min
  Log reduction: >6.5 log
[5]; 0.1% 9-decenoic acid, pH 4.1, exposure 2 min
  Log reduction: >6.5 log
[5]; 0.1% 9-decenoic acid, pH 4.1, exposure 5 min
  Log reduction: >6.5 log
[5]; 0.1% 9-decenoic acid, pH 4.1, exposure 7 min
  Log reduction: >6.5 log
[5]; 0.1% 9-decenoic acid, pH 4.1, exposure 10 min
  Log reduction: >6.5 log
[5]; 0.75% 9-decenoic acid, pH 7, exposure 0.5 min
  Log reduction: 0.67 log
[5]; 0.75% 9-decenoic acid, pH 7, exposure 2 min
  Log reduction: 1 log
[5]; 1% 9-decenoic acid, pH 7, exposure 0.5 min
  Log reduction: 2.1 log
[5]; 1% 9-decenoic acid, pH 7, exposure 2 min
  Log reduction: 3.2 log
